Assay results taken from patent publication US8436030B2, “Polymorphic forms of deferasirox (ICL670A)” (Navartis AG, priority 2006, dated 2013).

Test: Solubility of solid forms (comparative statement)
Format: physicochemical
Conditions: as compared to the crystalline form A or B

solubility: highest solubility
SMILES: O=C(O)c1ccc(-n2nc(-c3ccccc3O)nc2-c2ccccc2O)cc1 [amorphous form, 4-[3,5-bis(2-hydroxyphenyl)-[1,2,4]triazol-1-yl]benzoic acid]
